These results are taken from patent US20240002397A1, “3-AMINO PYRROLIDINE AND PIPERIDINE MACROCYCLIC OREXIN RECEPTOR AGONISTS” (Merck Sharp & Dohme LLC, priority 2020, published 2024).

As usually defined, the Emax is the size of the effect at its maximum, as opposed to the concentration needed.

In the first assay the target is T1, human OX2R (Homo sapiens, UniProt O43614).
T1 sequence (O43614 1-444): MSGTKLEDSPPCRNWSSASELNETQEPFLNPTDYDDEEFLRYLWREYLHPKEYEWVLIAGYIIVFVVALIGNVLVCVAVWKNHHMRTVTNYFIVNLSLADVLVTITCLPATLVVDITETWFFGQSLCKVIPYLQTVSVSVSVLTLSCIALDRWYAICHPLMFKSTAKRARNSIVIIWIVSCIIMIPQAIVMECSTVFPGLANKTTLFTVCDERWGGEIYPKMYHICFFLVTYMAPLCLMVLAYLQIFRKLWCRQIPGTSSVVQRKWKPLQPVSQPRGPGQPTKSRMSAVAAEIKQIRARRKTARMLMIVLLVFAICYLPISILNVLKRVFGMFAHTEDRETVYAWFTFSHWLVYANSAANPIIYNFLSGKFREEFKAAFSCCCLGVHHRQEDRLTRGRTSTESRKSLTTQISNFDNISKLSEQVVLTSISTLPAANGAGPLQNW
Nature of the assay: IPOne (IP-1) orexin receptor agonist assay in CHO cells expressing human OX2R. The settings on record: CHO, hOX2R IP-One; percentage of mean max effect of a reference compound at 1 uM with 100% activity.
`C[C@@H]1C[C@H](NS(C)(=O)=O)C2COC3CCC(CC3)c3cc(F)cc(c3)OCCCOC(=O)N21` (stereo partly shown) [Example 42, N-((2^1S,2^4S, 5^2R,5^3S,5^5R)-1^5-fluoro-5^5-methyl-6-oxo-3,7,11-trioxa-5(2,1)-pyrrolidina-1(1,3)-benzena-2(1,4)-cyclohexana-cyclounde-caphane-5^3-yl)methane-sulfonamide] returned an Emax of 102%.
The molecule `COc1cc2nc(c1)C1CCC(CC1)OCC1[C@@H](NS(=O)(=O)C(F)F)C[C@@H](C)N1C(=O)OCCCO2` (stereo partly shown) [Example 108, 1,1-difluoro-N-((2^1R,2^4R,5^2R,5^3S,5^5R)-14-methoxy-5^5-methyl-6-oxo-3,7,11-trioxa-1(2,6)-pyridina-5(2,1)-pyrrolidina-2(1,4)-cyclohexanacycloundecaphane-5^3-yl)methanesulfonamide] yielded an Emax of 104%.
Regarding `C[C@@H]1C[C@H](NS(=O)(=O)N(C)C)[C@@H]2COC3CCC(CC3)c3cccc(c3)OCCC=CC(=O)N12` [Example 9, N′-((2^1S,2^4S,5^2R,5^3S, 5^5R)-5^5-methyl-6-oxo-3,11-dioxa-5(2,1)-pyrrolidina-1(1,3)-benzena-2(1,4)-cyclohexanacycloundecaphan-7-en-5^3-yl)-N,N-dimethyl-sulfamide], the Emax was 100%.
On the same count and under the same terms, for `COc1cc2nc(c1)C1CCC(CC1)OC[C@H]1[C@@H](NS(C)(=O)=O)C[C@@H](C)N1C(=O)OCCCC2` [Example 111, N-((2^1S,2^4S,5^2R,5^3S,5^5R)-1^4-methoxy-5^5-methyl-6-oxo-3,7-dioxa-1(2,6)-pyridina-5(2,1)-pyrrolidina-2(1,4)-cyclohexanacycloundecaphane-5^3-yl)methanesulfonamide] the value was 99.6%.
`CN(C)S(=O)(=O)N[C@H]1CCN2C(=O)CCCCOc3cccc(c3)[C@H]3CC[C@H](CC3)OC[C@@H]12` [Example 7, N′-((2^1S,2^4S,5^2R,5^3S)-6-oxo-3,11-dioxa-5(2,1)-pyrrolidina-1(1,3)-benzena-2(1,4)-cyclohexanacycloundecaphane-5^3-yl)-N,N-dimethyl-sulfamide] had an Emax of 104%.
The molecule `C[C@@H]1C[C@H](NS(C)(=O)=O)C2COC3CCC(CC3)c3ccc(C(F)(F)F)c(n3)OCCOC(=O)N21` (stereo partly shown) [Example 64, N-((2^1S,2^4S,5^2R,5^3S,5^5R)-5^5-methyl-6-oxo-1^5-(trifluoromethyl)-3,7,10-trioxa-1(2,6)-pyridina-5(2,1)-pyrrolidina-2(1,4)-cyclohexanacyclodecaphane-5^3-yl)methanesulfonamide] showed an Emax of 102%.
For `COc1ccc2nc1OCCCOC(=O)N1C(COC3CCC2CC3)[C@@H](NS(C)(=O)=O)C[C@H]1C` (stereo partly shown) [Example 76, N-((2^1S,2^4S,5^2R,5^3S,5^5R)-1^5-methoxy-5^5-methyl-6-oxo-3,7,11-trioxa-1(2,6)-pyridina-5(2,1)-pyrrolidina-2(1,4)-cyclohexanacycloundecaphane-5^3-yl)methanesulfonamide], the Emax stood at 101%.
Still for that read-out and setting: for `CS(=O)(=O)N[C@H]1CCCN2C(=O)CCCCOc3cccc(c3)C3CCC(CC3)OC[C@@H]12` [Example 29, N-((2^1S,2^4S,5^2R,5^3S)-6-oxo-3,11-dioxa-5(2,1)-piperidina-1(1,3)-benzena-2(1,4)-cyclohexanacycloundecaphane-5^3-yl)methanesulfonamide] the value was 101%; for `C[C@@H]1C[C@H](NS(C)(=O)=O)[C@@H]2COC3CCC(CC3)c3ccc(F)c(n3)CCCCOC(=O)N12` [Example 110, N-((2^1S,2^4S,5^2R,5^3S,5^5R)-1^5-fluoro-5^5-methyl-6-oxo-3,7-dioxa-1(2,6)-pyridina-5(2,1)-pyrrolidina-2(1,4)-cyclohexanacycloundecaphane-5^3-yl)methanesulfonamide], 102%; for `CN(C)S(=O)(=O)N[C@H]1CCCN2C(=O)OCCCOc3cccc(c3)C3CCC(CC3)OC[C@@H]12` [Example 25, N′-((2^1S,2^4S,5^2R,5^3S)-6-oxo-3,7,11-trioxa-5(2,1)-piperidina-1(1,3)-benzena-2(1,4)-cyclohexanacycloundecaphane-5^3-yl)-N,N-dimethyl-sulfamide], 101%.
Still for that read-out and setting: with `COc1cc2nc(c1)N(C)CCCOC(=O)N1C(COC3CCC2CC3)[C@@H](NS(C)(=O)=O)C[C@H]1C` (stereo partly shown) [Example 95, N-((2^1S,2^4S,5^2R,5^3S,5^5R)-1^4-methoxy-5^5,1^1-dimethyl-6-oxo-3,7-dioxa-11-aza-1(2,6)-pyridina-5(2,1)-pyrrolidina-2(1,4)-cyclohexanacycloundecaphane-5^3-yl)methanesulfonamide] the figure was 98.4%; with `C[C@@H]1C[C@H](NS(C)(=O)=O)C2COC3CCC(CC3)c3cc(F)cc(c3F)OCCCOC(=O)N21` (stereo partly shown) [Example 48, N-((2^1S,2^4S, 5^2R,5^3S,5^5R)-1^2,1^5-difluoro-5^5-methyl-6-oxo-3,7,11-trioxa-5(2,1)-pyrrolidina-1(1,3)-benzena-2(1,4)-cyclohexana-cyclounde-caphane-5^3-yl)methane-sulfonamide], 101%; with `CNC[C@@H]1C[C@H](NS(C)(=O)=O)C2COC3CCC(CC3)c3cc(C(F)F)cc(n3)OCCCOC(=O)N21` (stereo partly shown) [Example 101, N-((2^1S,2^4S,5^2R,5^3S,5^5S)-1^4-(difluoromethyl)-5^5-((methylamino)methyl)-6-oxo-3,7,11-trioxa-1(2,6)-pyridina-5(2,1)-pyrrolidina-2(1,4)-cyclohexanacycloundecaphane-5^3-yl)methanesulfonamide], 102%.
Same read-out and setting: for `C[C@@H]1C[C@H](NS(C)(=O)=O)C2COC3CCC(CC3)c3cc(C(F)F)cc(n3)OCCCOC(=O)N21` (stereo partly shown) [Example 86, N-((2^1S,2^4S,5^2R,5^3S,5^5R)-1^4-(difluoromethyl)-5^5-methyl-6-oxo-3,7,11-trioxa-1(2,6)-pyridina-5(2,1)-pyrrolidina-2(1,4)-cyclohexanacycloundecaphane-5^3-yl)methanesulfonamide] the value was 101%; for `C[C@@H]1C[C@H](NS(C)(=O)=O)C2COC3CCC(CC3)c3ccc(C#N)c(c3)OCCCOC(=O)N21` (stereo partly shown) [Example 45, N-((2^1S,2^4S, 5^2R,5^3S,5^5R)-1^4-cyano-5^5-methyl-6-oxo-3,7,11-trioxa-5(2,1)-pyrrolidina-1(1,3)-benzena-2(1,4)-cyclohexana-cyclounde-caphane-5^3-yl)methane-sulfonamide], 103%.
For the molecule `C[C@@H]1C[C@H](NS(C)(=O)=O)C2COC3CCC(CC3)c3cccc(n3)NCCCOC(=O)N21` (stereo partly shown) [Example 90, N-((2^1S,2^4S,5^2R,5^3S,5^5R)-5^5-methyl-6-oxo-3,7-dioxa-11-aza-1(2,6)-pyridina-5(2,1)-pyrrolidina-2(1,4)-cyclohexanacycloundecaphane-5^3-yl)methanesulfonamide], the Emax was determined as 101%.
The same measure, in the same setting: with `C[C@@H]1C[C@H](NS(C)(=O)=O)C2COC3CCC(CC3)c3cc(ccc3OC(F)(F)F)OCCOC(=O)N21` (stereo partly shown) [Example 53, N-((2^1S,2^4S,5^2R,5^3S,5^5R)-5^5-methyl-6-oxo-16-(trifluoromethoxy)-3,7,10-trioxa-5(2,1)-pyrrolidina-1(1,3)-benzena-2(1,4)-cyclohexanacyclodecaphane-5^3-yl)methanesulfonamide] the figure was 103%; with `C[C@@H]1C[C@H](NS(C)(=O)=O)[C@@H]2COC3CCC(CC3)c3ccccc3CCOC(=O)N12` [Example 5, N-((2^1R,2^4R,5^2R,5^3S, 5^5R)-5^5-methyl-6-oxo-3,7-dioxa-5(2,1)-pyrrolidina-1(1,2)-benzena-2(1,4)-cyclo-hexanacyclonaphane-5^3-yl)methane sulfonamide], 100%; with `C[C@@H]1C[C@H](NS(=O)(=O)N(C)C)[C@@H]2CO[C@H]3CC[C@H](CC3)c3cccc(c3)CCCCCC(=O)N12` [Example 12, N′-((2^1S,2^4S,5^2R,5^3S,5^5R)-5^5-methyl-6-oxo-3-oxa-5(2,1)-pyrrolidina-1(1,3)-benzena-2(1,4)cyclohexanacycloundecaphane-5^3-yl)-N,N-dimethyl-sulfamide], 101%.
The molecule `CC(C)Oc1ccc2cc1C1CCC(CC1)OCC1[C@@H](NS(C)(=O)=O)C[C@@H](C)N1C(=O)OCCO2` (stereo partly shown) [Example 62, N-((2^1S,2^4S,5^2R,5^3S,5^5R)-1^6-isopropoxy-5^5-methyl-6-oxo-3,7,10-trioxa-5(2,1)-pyrrolidina-1(1,3)-benzena-2(1,4)-cyclohexanacyclodecaphane-5^3-yl)methanesulfonamide] displayed an Emax of 91.2%.

Still in this assay, the particulars now being: hOX2R IP-One; percentage of mean max effect of a reference compound at 1 uM with 100% activity.
On to `CCS(=O)(=O)NC1CC(C)N2C(=O)OCCOc3cc(OC)cc(n3)C3CCC(CC3)OCC12` (stereo not shown) [Example 103, N-((2^1R,2^4R,5^2R,5^3S,5^5R)-1^4-methoxy-5^5-methyl-6-oxo-3,7,10-trioxa-1(2,6)-pyridina-5(2,1)-pyrrolidina-2(1,4)-cyclohexanacyclodecaphane-5^3-yl)ethanesulfonamide], for which the “Emax (%)” value came to 103.0%.
The same measure, in the same setting: with “N-((2^1S,2^4S,5^2R,5^3S,5^5R)-1^5- fluoro-1^4-methoxy-5^5-methyl- 6-oxo-3,7,10-trioxa-1(2,6)- pyridina-5(2,1)-pyrrolidina- 2(1,4)-cyclohexanacyclode caphane-5^3-yl)methane sulfonamide [Example 74]” the figure was 110.2%.
